Laboratory results published in patent US11891387B2, “Monoacylglycerol lipase modulators” (Janssen Pharmaceutica NV, priority 2020, dated 2024).

Target: human MGL from HeLa cells (Homo sapiens (Human), UniProt Q99685)
Assay: MGL in vitro activity assay: cleavage of [glycerol-1,3-3H]-oleyl glycerol, activated carbon filtration
Assay type: biochemical
Conditions: 300 nM [Glycerol-1,3-3H]-oleyl glycerol, endogenously expressed MGL from HeLa cells, one hour incubation
In short: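 Endogenous human MGL from HeLa cells or homogenates was incubated with compound and 300 nM [glycerol-1,3-3H]-oleyl glycerol for one hour. Released [3H]-glycerol passing an activated carbon filter was counted as the measure of activity. Screening used 10 μM compound, with IC50 top concentration set empirically.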

Sequence of human MGL from HeLa cells (Q99685 whole entry): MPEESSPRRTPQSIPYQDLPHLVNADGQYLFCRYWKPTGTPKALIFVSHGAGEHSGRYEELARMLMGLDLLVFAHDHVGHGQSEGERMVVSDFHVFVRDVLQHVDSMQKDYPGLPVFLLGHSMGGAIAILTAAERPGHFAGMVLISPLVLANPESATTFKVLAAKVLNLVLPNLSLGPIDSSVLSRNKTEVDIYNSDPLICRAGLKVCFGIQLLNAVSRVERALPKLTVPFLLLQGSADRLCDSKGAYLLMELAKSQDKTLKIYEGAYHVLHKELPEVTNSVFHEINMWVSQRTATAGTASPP

SMILES | IC50 [nM]
C[C@H]1c2nn(C)c(-c3cnn(-c4ccccn4)c3)c2CCN1C(=O)c1ccc2ncccc2c1 [Example 70, (S)-(2,7-Dimethyl-3-(1-(pyridin-2-yl)-1H-pyrazol-4-yl)-2,4,5,7-tetrahydro-6H-pyrazolo[3,4-c]pyridin-6-yl)(quinolin-6-yl)methanone] | 1230
C[C@H]1c2nn(C)c(-c3ccnn3CC3CC3)c2CCN1C(=O)c1ccc2ncccc2c1 [Example 71, (S)-(3-(1-(Cyclopropylmethyl)-1H-pyrazol-5-yl)-2,7-dimethyl-2,4,5,7-tetrahydro-6H-pyrazolo[3,4-c]pyridin-6-yl)(quinolin-6-yl)methanone] | 7300
CCn1nc(C(F)(F)F)cc1-c1c2c(nn1C)[C@@H]1CCC[C@H](C2)N1C(=O)c1cccc(C)c1 [Example 78, ((5R,9S)-3-(1-Ethyl-3-(trifluoromethyl)-1H-pyrazol-5-yl)-2-methyl-4,5,6,7,8,9-hexahydro-2H-5,9-epiminocycloocta[c]pyrazol-10-yl)(m-tolyl)methanone] | 160
COc1cccc(C(=O)N2[C@@H]3CCC[C@H]2c2nn(C)c(-c4cc(C(F)(F)F)n(C)n4)c2C3)c1C [Example 79, (3-Methoxy-2-methylphenyl)((5R,9S)-2-methyl-3-(1-methyl-5-(trifluoromethyl)-1H-pyrazol-3-yl)-4,5,6,7,8,9-hexahydro-2H-5,9-epiminocycloocta[c]pyrazol-10-yl)methanone] | 16
Cn1nc(C(F)(F)F)cc1-c1c2c(nn1C)[C@@H]1CCC[C@H](C2)N1C(=O)c1ccc2ncccc2c1 [Example 80, ((5R,9S)-2-Methyl-3-(1-methyl-3-(trifluoromethyl)-1H-pyrazol-5-yl)-4,5,6,7,8,9-hexahydro-2H-5,9-epiminocycloocta[c]pyrazol-10-yl)(quinolin-6-yl)methanone] | 22
Cn1nc(C(F)(F)F)cc1-c1c2c(nn1C)[C@@H]1CCC[C@H](C2)N1C(=O)c1n[nH]c2ncc(F)cc12 [Example 81, (5-Fluoro-1H-pyrazolo[3,4-b]pyridin-3-yl)((5R,9S)-2-methyl-3-(1-methyl-3-(trifluoromethyl)-1H-pyrazol-5-yl)-4,5,6,7,8,9-hexahydro-2H-5,9-epiminocycloocta[c]pyrazol-10-yl)methanone] | 100
Cc1ccc2c(C(=O)N3[C@@H]4CCC[C@H]3c3nn(C)c(-c5cc(C(F)(F)F)nn5C)c3C4)nccc2n1 [Example 82, (2-Methyl-1,6-naphthyridin-5-yl)((5R,9S)-2-methyl-3-(1-methyl-3-(trifluoromethyl)-1H-pyrazol-5-yl)-4,5,6,7,8,9-hexahydro-2H-5,9-epiminocycloocta[c]pyrazol-10-yl)methanone] | 74
Cn1nc(C(F)(F)F)cc1-c1c2c(nn1C)[C@@H]1CCC[C@H](C2)N1C(=O)c1cnc2cccc(F)c2c1 [Example 83, (5-Fluoroquinolin-3-yl)((5R,9S)-2-methyl-3-(1-methyl-3-(trifluoromethyl)-1H-pyrazol-5-yl)-4,5,6,7,8,9-hexahydro-2H-5,9-epiminocycloocta[c]pyrazol-10-yl)methanone] | 40
Cn1nc(C(F)(F)F)cc1-c1c2c(nn1C)[C@@H]1CCC[C@H](C2)N1C(=O)c1noc2ccccc12 [Example 84, Benzo[d]isoxazol-3-yl((5R,9S)-2-methyl-3-(1-methyl-3-(trifluoromethyl)-1H-pyrazol-5-yl)-4,5,6,7,8,9-hexahydro-2H-5,9-epiminocycloocta[c]pyrazol-10-yl)methanone] | 5.1
Cn1nc(C(F)(F)F)cc1-c1c2c(nn1C)[C@@H]1CCC[C@H](C2)N1C(=O)c1nn(C)c2ncccc12 [Example 85, (1-Methyl-1H-pyrazolo[3,4-b]pyridin-3-yl)((5R,9S)-2-methyl-3-(1-methyl-3-(trifluoromethyl)-1H-pyrazol-5-yl)-4,5,6,7,8,9-hexahydro-2H-5,9-epiminocycloocta[c]pyrazol-10-yl)methanone] | 64
Cn1nc(C(F)(F)F)cc1-c1c2c(nn1C)[C@@H]1CCC[C@H](C2)N1C(=O)c1nn(C)c2ccc(F)cc12 [Example 86, (5-Fluoro-1-methyl-1H-indazol-3-yl)((5R,9S)-2-methyl-3-(1-methyl-3-(trifluoromethyl)-1H-pyrazol-5-yl)-4,5,6,7,8,9-hexahydro-2H-5,9-epiminocycloocta[c]pyrazol-10-yl)methanone] | 18
Cn1nc(-c2c3c(nn2C)[C@@H]2CCC[C@H](C3)N2C(=O)c2ccc3ncccc3c2)cc1C(F)(F)F [Example 87, ((5R,9S)-2-Methyl-3-(1-methyl-5-(trifluoromethyl)-1H-pyrazol-3-yl)-4,5,6,7,8,9-hexahydro-2H-5,9-epiminocycloocta[c]pyrazol-10-yl)(quinolin-6-yl)methanone] | 17
Cc1cc(C(=O)N2[C@@H]3CCC[C@H]2c2nn(C)c(-c4cc(C(F)(F)F)n(C)n4)c2C3)c2cc(F)ccc2n1 [Example 88, (6-Fluoro-2-methylquinolin-4-yl)((5R,9S)-2-methyl-3-(1-methyl-5-(trifluoromethyl)-1H-pyrazol-3-yl)-4,5,6,7,8,9-hexahydro-2H-5,9-epiminocycloocta[c]pyrazol-10-yl)methanone] | 6.6
COc1cccc(C(=O)N2[C@@H]3CC[C@H]2c2nn(C)c(-c4cc(C(F)(F)F)nn4C)c2C3)c1C [Example 89, (3-Methoxy-2-methylphenyl)((5R,8S)-2-methyl-3-(1-methyl-3-(trifluoromethyl)-1H-pyrazol-5-yl)-2,4,5,6,7,8-hexahydro-5,8-epiminocyclohepta[c]pyrazol-9-yl)methanone] | 66
Cc1cc(C)c2cc(C(=O)N3CCc4c(nn(C)c4-c4cc(C(F)(F)F)nn4C)[C@@H]3C)ccc2n1 [Example 94, (S)-(2,7-Dimethyl-3-(1-methyl-3-(trifluoromethyl)-1H-pyrazol-5-yl)-2,4,5,7-tetrahydro-6H-pyrazolo[3,4-c]pyridin-6-yl)(2,4-dimethylquinolin-6-yl)methanone] | 39
Cc1ccc(C(=O)N2CCc3c(nn(C)c3-c3cc(C(F)(F)F)nn3C)[C@@H]2C)c(OC(F)(F)F)c1 [Example 110, (S)-(2,7-Dimethyl-3-(1-methyl-3-(trifluoromethyl)-1H-pyrazol-5-yl)-2,4,5,7-tetrahydro-6H-pyrazolo[3,4-c]pyridin-6-yl)(4-methyl-2-(trifluoromethoxy)phenyl)methanone] | 650
C[C@H]1c2nn(C)c(-c3cc(C(F)(F)F)nn3C)c2CCN1C(=O)c1cccc(OC(F)(F)F)c1F [Example 112, (S)-(2,7-Dimethyl-3-(1-methyl-3-(trifluoromethyl)-1H-pyrazol-5-yl)-2,4,5,7-tetrahydro-6H-pyrazolo[3,4-c]pyridin-6-yl)(2-fluoro-3-(trifluoromethoxy)phenyl)methanone] | 86

Next, values leading:

IC50 [nM] | SMILES
230 | Cc1ccc2c(F)c(C(=O)N3CCc4c(nn(C)c4-c4cc(C(F)(F)F)nn4C)[C@@H]3C)ccc2n1 [Example 90, (S)-(2,7-dimethyl-3-(1-methyl-3-(trifluoromethyl)-1H-pyrazol-5-yl)-2,4,5,7-tetrahydro-6H-pyrazolo[3,4-c]pyridin-6-yl)(5-fluoro-2-methylquinolin-6-yl)methanone]
210 | Cc1ccc2cc(C(=O)N3CCc4c(nn(C)c4-c4cc(C(F)(F)F)nn4C)[C@@H]3C)c(F)cc2n1 [Example 91, (S)-(2,7-Dimethyl-3-(1-methyl-3-(trifluoromethyl)-1H-pyrazol-5-yl)-2,4,5,7-tetrahydro-6H-pyrazolo[3,4-c]pyridin-6-yl)(7-fluoro-2-methylquinolin-6-yl)methanone]
380 | Cc1ccc2c(C)c(C(=O)N3CCc4c(nn(C)c4-c4cc(C(F)(F)F)nn4C)[C@@H]3C)ccc2n1 [Example 92, (S)-(2,7-Dimethyl-3-(1-methyl-3-(trifluoromethyl)-1H-pyrazol-5-yl)-2,4,5,7-tetrahydro-6H-pyrazolo[3,4-c]pyridin-6-yl)(2,5-dimethylquinolin-6-yl)methanone]
1210 | Cc1ccc2cc(C(=O)N3CCc4c(nn(C)c4-c4cc(C(F)(F)F)nn4C)[C@@H]3C)c(C)cc2n1 [Example 93, (S)-(2,7-Dimethyl-3-(1-methyl-3-(trifluoromethyl)-1H-pyrazol-5-yl)-2,4,5,7-tetrahydro-6H-pyrazolo[3,4-c]pyridin-6-yl)(2,7-dimethylquinolin-6-yl)methanone]
10000 | COc1cc(C)nc2ccc(C(=O)N3CCc4c(nn(C)c4-c4cc(C(F)(F)F)nn4C)[C@@H]3C)cc12 [Example 95, (S)-(2,7-Dimethyl-3-(1-methyl-3-(trifluoromethyl)-1H-pyrazol-5-yl)-2,4,5,7-tetrahydro-6H-pyrazolo[3,4-c]pyridin-6-yl)(4-methoxy-2-methylquinolin-6-yl)methanone]
9900 | C[C@H]1c2nn(C)c(-c3cc(C(F)(F)F)nn3C)c2CCN1C(=O)c1ccc(OC(F)(F)F)cc1Cl [Example 113, (S)-(2-Chloro-4-(trifluoromethoxy)phenyl)(2,7-dimethyl-3-(1-methyl-3-(trifluoromethyl)-1H-pyrazol-5-yl)-2,4,5,7-tetrahydro-6H-pyrazolo[3,4-c]pyridin-6-yl)methanone]
160 | C[C@H]1c2nn(C)c(-c3cc(C(F)(F)F)n(C)n3)c2CCN1C(=O)c1cccc2cnn(C)c12 [Example 117, (S)-(2,7-Dimethyl-3-(1-methyl-5-(trifluoromethyl)-1H-pyrazol-3-yl)-2,4,5,7-tetrahydro-6H-pyrazolo[3,4-c]pyridin-6-yl)(1-methyl-1H-indazol-7-yl)methanone]
47 | C[C@H]1c2nn(C)c(-c3cc(C(F)(F)F)n(C)n3)c2CCN1C(=O)c1ccnc2c1cnn2C [Example 118, (S)-(2,7-Dimethyl-3-(1-methyl-5-(trifluoromethyl)-1H-pyrazol-3-yl)-2,4,5,7-tetrahydro-6H-pyrazolo[3,4-c]pyridin-6-yl)(1-methyl-1H-pyrazolo[3,4-b]pyridin-4-yl)methanone]
